Results published in patent US5015631A, “Repairing agent for cells and tissues” (MECT Corporation, priority 1987, dated 1991).
Where two headings read alike, the source gives them in different places.

Experiments:
[1] = tested on: nasal mucous membranes of rats; experiment: Acute disappearance of cilia from nasal mucous membranes of rats and degeneration of the epithelium induced by exposure to sulfur dioxide; format: in vivo, Male Wistar rats; details: for Disappearance of cilia / Disappearance of epithelium / Monolayer squamous metaplasia of epithelium: per animal; on Disappearance of epithelium: key: -: Unchanged; +: Slight; ++: Moderate change; +++: Severe; on Monolayer squamous metaplasia of epithelium: key: -: Unchanged; +: Slight; ++: Moderate change; +++: Severe; on disappearance of cilia: key: -: Unchanged; +: Slight; ++: Moderate change; +++: Severe
Description: The effects of test samples on acute disappearance of cilia from nasal mucous membranes of rats and the degeneration of the epithelium induced by exposure to sulfur dioxide:
Male Wistar rats weighing 180 to 200 g were used.
(§1) Sodium N-acetylneuraminate (a product of MECT Corporation) was used.
The rats were exposed to 400 ppm of sulfur dioxide for 4 hours. 30 minutes after the exposure, the rats were caused to inhale the test sample or physiological saline as follows:
Group I: inhalation of 300 mg/m^3 of sodium N-acetylneuraminate for 1 hour.
Group II: inhalation of 100 mg/m^3 of sodium N-acetylneuraminate for 1 hour.
Group III: inhalation of 20 ml/m^3 of the physiological saline for 1 hour.
Each group comprised 5 rats.
24 hours after the inhalation of the materials or physiological saline, the rats were killed and their intranarial changes were examined by a microscopic observation and the results were compared with one another.

[2] = tested on: nasal mucous membrane of rabbits; experiment: Subacute disappearance of cilia from nasal mucous membrane of rabbits and degeneration of the epithelium induced by exposure to sulfur dioxide; format: in vivo, Male New Zealand White rabbits; on disappearance of cilia: key: -: Unchanged; +: Slight; ++: Moderate change; +++: Severe
Description: Effects on subacute disappearance of cilia from nasal mucous membrane of rabbits and degeneration of the epithelium thereof induced by exposure to sulfur dioxide:
Male New Zealand White rabbits weighing 1.8 to 2.2 kg were used.
as §1
The rabbits were exposed to sulfur dioxide by means of a sulfur dioxide-exposing apparatus for 2 hours a day continuously for 5 weeks. The sulfur dioxide concentrations were 70 to 150 ppm in the first and second weeks and 200 to 300 ppm in the third to fifth weeks. After the third week, the inhalation of the material or physiological saline by means of an ultrasonic nebulizer (TUR-3200: a product of Nippon Koden Co., Ltd.) was made immediately before the exposure to sulfur dioxide.
Group I: inhalation of 25 mg/kg of sodium N-acetylneuraminate for 2 minutes.
Group II: inhalation of 1 ml of physiological saline for 2 minutes.
Each group comprised six rabbits.
Five weeks after completion of the exposure to sulfur dioxide, the rabbits were killed by venesection and the intranarial changes of them were examined by a microscopic observation and the results were compared with one another.

mice [3] = experiment: Acute toxicity test in mice; format: in vivo; details: male, 20160 min
Description: (§2) The acute toxicity tests of sodium N-acetylneuraminate to mice, rats and guinea pigs given by oral administration or subcutaneous injection, intraperitoneal injection, intravenous injection or inhalation, were conducted as follows:
(§3) 20 w/v % (solution in distilled water)

rats = experiment: Acute toxicity test in rats; format: in vivo
Description: as §2, §3
In the inhalation, the subjects were exposed to a spray of the compound o

Stability versus pH = format: physicochemical
mice [4] = experiment: Simple acute toxicity test by intravenous injection in mice; format: in vivo, Male ddy mice; details: 3 mice
Description: Simple acute toxicity test:
Simple acute toxicity tests of the materials were conducted by intraveous injections for the mice as follows:
Lithium, potassium, barium and magnesium N-acetylneuraminates (products of MECT Corporation) were used.
Weight of the animal in the initial stage of the test: 17.7 to 21.1 g
Number of mice for each level: 3
(3) Room temperature: 23±1° C., humidity: 55±7%
(4) Route of administration: intravenous injection
The material was dissolved in the physiological saline. The concentration of the dose solution was adjusted so that 0.2 ml of the dose solution was administered per 20 g of the body weight of the mice. The solution was given to a tail of each mouse by the intravenous injection. The dose was 500, 1000 or 2000 mg/kg.
The general symptoms and death were observed from immediately after the administration to seven days after the administration.

[5] = Group I: inhalation 300 mg/m^3 for 1 hour
[6] = Group II: inhalation 100 mg/m^3 for 1 hour
[7] = Group I: inhalation 25 mg/kg for 2 minutes, per animal

SMILES: CC(=O)N[C@H]1[C@H]([C@H](O)[C@H](O)CO)OC(O)(C(=O)[O-])C[C@@H]1O.[Na+] (stereo partly drawn)
- Disappearance of cilia [1, 5]: ++ and +
- Disappearance of epithelium [1, 5]: -
- Monolayer squamous metaplasia of epithelium [1, 5]: -
- Disappearance of cilia [1, 6]: + and - and ++
- Disappearance of epithelium [1, 6]: -
- Monolayer squamous metaplasia of epithelium [1, 6]: -
- Intranarial changes ([1]; Groups I and II (300 and 100 mg/m^3), compared with Group III (physiological saline)): only the disappearance of cilia was observed and the degree of the disappearance was lower than that of Group III
- Inhibition of acute disappearance of cilia, monolayer squamous metaplasia and disappearance of epithelium / degeneration of nasal mucous membranes ([1]; sulfur dioxide exposure, rats): remarkable effect of inhibiting
- Squamous metaplasia of epithelium, comparison of groups ([2]; Group I (25 mg/kg) versus Group II (physiological saline)): more serious in Group II than in Group I
- Disappearance of cilia [2, 7]: - and + and ++
- Squamous metaplasia of epithelium [2, 7]: - and + and ++
- Inhibition of subacute disappearance of cilia and squamous metaplasia of epithelium / repair of cells and tissues of nasal mucous membranes ([2]; sulfur dioxide exposure, 25 mg/kg inhalation): remarkable effect of inhibiting
- LD50 (mice [3]; intraperitoneal): > 5,000 mg/kg
- LD50 (mice [3]; intravenous): > 5,000 mg/kg
- LD50 (mice [3]; oral): > 5,000 mg/kg
- LD50 (mice [3]; subcutaneous): > 5,000 mg/kg
- LD50 (rats): > 5,000 mg/kg
- LD50 (rats; rats, female, inhalation, spray for one hour): > 4,000 mg/m^3
- LD50 (rats; rats, male, inhalation, spray for one hour): > 4,000 mg/m^3
- LD50 (rats; rats, male, intraperitoneal, 20160 min): > 5,000 mg/kg
- LD50 (rats; rats, male, intravenous, 20160 min): > 5,000 mg/kg
- LD50 (rats; rats, male, oral, 20160 min): > 5,000 mg/kg
- pH range of greatest stability (Stability versus pH): 5.5 to 6.0

SMILES: CC(=O)N[C@H]1[C@H]([C@H](O)[C@H](O)CO)OC(O)(C(=O)O)C[C@@H]1O (stereo partly drawn) [Barium N-acetylneuraminate]
- Final death rate (mice [4]; 500 mg/kg i.v.): 3/3
- Number of death with the elapse of time (mice [4]; 500 mg/kg i.v., 1 hr): 3
- Number of death with the elapse of time (mice [4]; 500 mg/kg i.v., 3 hrs): 0
- Number of death with the elapse of time (mice [4]; 500 mg/kg i.v., 6 hrs): 0
- Number of death with the elapse of time (mice [4]; 500 mg/kg i.v., 24 hrs): 0
- Number of death with the elapse of time (mice [4]; 500 mg/kg i.v., 2 days): 0
- Number of death with the elapse of time (mice [4]; 500 mg/kg i.v., 3 days): 0
- Number of death with the elapse of time (mice [4]; 500 mg/kg i.v., 4 days): 0
- Number of death with the elapse of time (mice [4]; 500 mg/kg i.v., 5 days): 0
- Number of death with the elapse of time (mice [4]; 500 mg/kg i.v., 6 days): 0
- Number of death with the elapse of time (mice [4]; 500 mg/kg i.v., 7 days): 0
- Number of death with the elapse of time (mice [4]; 1000 mg/kg i.v., 1 hr): 3
- Number of death with the elapse of time (mice [4]; 1000 mg/kg i.v., 3 hrs): 0
- Number of death with the elapse of time (mice [4]; 1000 mg/kg i.v., 6 hrs): 0
- Number of death with the elapse of time (mice [4]; 1000 mg/kg i.v., 24 hrs): 0
- Number of death with the elapse of time (mice [4]; 1000 mg/kg i.v., 2 days): 0
- Number of death with the elapse of time (mice [4]; 1000 mg/kg i.v., 3 days): 0
- Number of death with the elapse of time (mice [4]; 1000 mg/kg i.v., 4 days): 0
- Number of death with the elapse of time (mice [4]; 1000 mg/kg i.v., 5 days): 0
- Number of death with the elapse of time (mice [4]; 1000 mg/kg i.v., 6 days): 0
- Number of death with the elapse of time (mice [4]; 1000 mg/kg i.v., 7 days): 0
- Number of death with the elapse of time (mice [4]; 2000 mg/kg i.v., 1 hr): 3
- Number of death with the elapse of time (mice [4]; 2000 mg/kg i.v., 3 hrs): 0
- Number of death with the elapse of time (mice [4]; 2000 mg/kg i.v., 6 hrs): 0
- Number of death with the elapse of time (mice [4]; 2000 mg/kg i.v., 24 hrs): 0
- Number of death with the elapse of time (mice [4]; 2000 mg/kg i.v., 2 days): 0
- Number of death with the elapse of time (mice [4]; 2000 mg/kg i.v., 3 days): 0
- Number of death with the elapse of time (mice [4]; 2000 mg/kg i.v., 4 days): 0
- Number of death with the elapse of time (mice [4]; 2000 mg/kg i.v., 5 days): 0
- Number of death with the elapse of time (mice [4]; 2000 mg/kg i.v., 6 days): 0
- Number of death with the elapse of time (mice [4]; 2000 mg/kg i.v., 7 days): 0
